# Assay results reported in EP0874242A1, “Device and apparatus for the simultaneous detection of multiple analytes” (Randox Laboratories Ltd., priority 1997, dated 1998).
# Experiments:
# sulphonamide antibodies [1] = test: Multi-sulphonamide competitive immunoassay, antibodies on APTES ceramic substrates with dihydrazide linker, with or without periodate activation; assay type: binding
# Method: Multi-sulphonamide standards (200 µl) and a cocktail of sulphonamide horseradish peroxidase conjugates (100 µl) were added to the reaction wells containing the device as appropriate and incubated for 15 minutes at room temperature. The standards contained 5, 10, 50 and 100 ng/ml for each of the 12 sulphonamides.
# Thereafter the multi-sulphonamide devices were washed with PBS/PEG buffer to remove excess reagents and 300 µl chemiluminescent substrate [luminol (1.4mM)/urea hydrogen peroxide (9.6mM)] per device was introduced. The devices were imaged using a CCD camera with an exposure time of up to 4 minutes. Standard curves were obtained for each of the 12 individual sulphonamides. Calibration curves for each of the 12 individual sulphonamides are represented graphically in Figure 15. The % B/Bo value plotted on the Y-axis represents the % […] of the zero standard RLU (Relative light unit) value caused by each individual sulphonamide standard (plotted on the X-axis as log10).
# In a further example, ceramic substrates silanated with APTES were reacted with a dihydrazide linker. Sulphonamide antibodies were treated with sodium periodate to render them reactive towards the hydrazide linker. Control sulphonamide antibodies were simply dialysed against sodium acetate buffer pH 5.5. The RLU results are shown in Tables 4 (not treated) and 5 (treated by periodate method). […] The control antibodies (no periodate activation) gave very poor standard curves when compared to the covalently immobilised sulphonamide antibodies.
# sulphonamide antibodies [2] = test: Multi-sulphonamide competitive immunoassay in microchannels, chemiluminescent CCD detection (Example 3); assay type: binding; details: microchannel device, 2 minutes incubation
# Method: In contrast to Example 1, a multi-sulphonamide assay has also been conducted using microchannels. The device is illustrated in Figure 11. In this Example, the reagent addition reservoirs 21 are 2 mm x 2 mm, and 300 µm deep (vol. 1.2 µl), the channels 23 are each 5 mm long, 200 µm wide and 100 µm deep (vol. 100 nl), and the reservoir 24 is 1.9 mm x 8.6 mm, and 300 µm deep (vol. 4.9 µl).
# The chemical modification of the surface was performed as described in Example 1. Antibody was added to each of the channels and incubated for 2 hours at 37°C. The substrates were then blocked and washed as for Example 1.
# A multi-sulphonamide standard (200 µl) and sulphonamide horseradish pexoxidase conjugates (100 µl) were mixed. 1 µl of the resultant reagent was pipetted into each of the reservoirs supplying the antibody-coated channel for each sulphonamide. The standards contained 10 or 100 ng/ml of all the sulphonamides as appropriate.
# The reagent flowed by capillary action. After incubation for 2 minutes, the substrate was washed 5 times with PBS/PEG and chemiluminescent reagent [luminol (1.4 mM)/urea hydrogen peroxide (9.6 mM)] was added.
# The devices were imaged using a CCD camera with an exposure time of up to 4 minutes.
# [3] = 10 ng/ml standard, antibodies treated by periodate method, covalently immobilised (Table 5)
# [4] = 10 ng/ml standard, control antibodies not treated with periodate (Table 4)
# [5] = 100 ng/ml standard, antibodies treated by periodate method, covalently immobilised (Table 5)
# [6] = 100 ng/ml standard, control antibodies not treated with periodate (Table 4)
Structure (SMILES),% B/Bo (sulphonamide antibodies [1]; [3]) [%],% B/Bo (sulphonamide antibodies [1]; [4]) [%],% B/Bo (sulphonamide antibodies [1]; [5]) [%],% B/Bo (sulphonamide antibodies [2]; 10 ng/ml standard) [%],% B/Bo (sulphonamide antibodies [2]; 100 ng/ml standard) [%],% B/Bo (sulphonamide antibodies [1]; [6]) [%]
"Cc1noc(NS(=O)(=O)c2ccc(N)cc2)c1C [Sulphisoxazole, sulphisoxazole]",27,23,9,–,–,–
"COc1ncnc(NS(=O)(=O)c2ccc(N)cc2)c1OC [Sulphadoxine, sulphadoxine]",31,51,20,–,–,–
"Cc1ccnc(NS(=O)(=O)c2ccc(N)cc2)n1 [Sulphamerazine, sulphamerazine]",43,52,26,40,22,56
"COc1ccc(NS(=O)(=O)c2ccc(N)cc2)nn1 [Sulphamethoxypyridazine, sulphamethoxypyridazine]",74,84,40,28,15,–
"COc1cc(NS(=O)(=O)c2ccc(N)cc2)nc(OC)n1 [Sulphadimethoxine, sulphadimethoxine]",46,–,36,–,–,97
"Nc1ccc(S(=O)(=O)Nc2cnc3ccccc3n2)cc1 [Sulphaquinoxaline, sulphaquinoxaline]",58,79,53,56,24,93
"Cc1nnc(NS(=O)(=O)c2ccc(N)cc2)s1 [Sulphamethizole, sulphamethizole]",33,36,28,–,–,–
"Cc1cc(C)nc(NS(=O)(=O)c2ccc(N)cc2)n1 [Sulphamethazine, sulphamethazine]",77,–,61,14,7,–
"Nc1ccc(S(=O)(=O)Nc2nccs2)cc1 [Sulphathiazole, sulphathiazole]",32,28,16,–,–,–
"Nc1ccc(S(=O)(=O)Nc2ccc(Cl)nn2)cc1 [Sulphachloropyridazine, sulphachloropyridazine]",30,24,8,–,–,–
